Source: ChEMBL document CHEMBL6153050, “Repurposing FDA-approved drugs to target G-quadruplexes in breast cancer” (Eur J Med Chem, 2025)
Activity calls are given as the source filed them. The calls are words filed in the database; no cut-off is given here.

Assays:
MDA-MB-231 [1] = experiment: Induction of DNA damage in human MDA-MB-231 cells assessed as increase in gamma-H2AX level incubated for 6 days by flow cytometric analysis; assay type: functional, cell-based; conditions: time 6.0 day
MDA-MB-231 [2] = experiment: Cytotoxicity against human MDA-MB-231 cells assessed as reduction in cell viability incubated for 6 days by SRB assay; assay type: functional, cell-based; conditions: Homo sapiens, MDA-MB-231, 144 h
SK-BR-3 [3] = experiment: Induction of cell cycle arrest in human SK-BR-3 cells assessed as accumulation of cells at G2/M phase at IC50 concentration incubated for 6 days by PI staining based flow cytometric analysis; assay type: functional; conditions: time 6.0 day
Quadruplex DNA [4] = conditions: time 10.0 min
Quadruplex DNA [5] = experiment: Binding affinity to c-Myc G4 quadruplex DNA (TGAGGGTGGGTAGGGTGGGTAA) (unknown origin) assessed as binding enthalpy by ITC analysis; assay type: nucleic-acid assay
MCF7 [6] = experiment: Induction of DNA damage in human MCF7 cells assessed as increase in gamma-H2AX level at IC50 concentration incubated for 6 days by flow cytometric analysis; assay type: functional, cell-based; conditions: time 6.0 day
Quadruplex DNA [7] = experiment: Binding affinity to HER2 G4 quadruplex DNA (GGAGAAGGAGGAGGTGGAGGAGGAGGG) (unknown origin) assessed as binding enthalpy by ITC analysis; assay type: nucleic-acid assay
Quadruplex DNA [8] = experiment: Stabilization of G4 quadruplex DNA (unknown origin) in human SK-BR-3 cells assessed as increase in G4 motif at IC50 concentration incubated for 6 days by flow cytometric analysis; assay type: cell-based; conditions: time 6.0 day
MCF7 [9] = experiment: Induction of cell cycle arrest in human MCF7 cells assessed as reduction in G1 phase at IC50 concentration incubated for 6 days by PI staining based flow cytometric analysis; assay type: functional; conditions: time 6.0 day
Quadruplex DNA [10] = experiment: Binding affinity to HER2 G4 quadruplex DNA (GGAGAAGGAGGAGGTGGAGGAGGAGGG) (unknown origin) assessed as equilibrium binding constant (Ka) by ITC analysis; assay type: nucleic-acid assay
Quadruplex DNA [11] = experiment: Binding affinity to c-Myc G4 quadruplex DNA (TGAGGGTGGGTAGGGTGGGTAA) (unknown origin) assessed as change in entropy by ITC analysis; assay type: nucleic-acid assay
Quadruplex DNA [12] = conditions: time 10.0 min; remark: listed apart in the source
MDA-MB-231 [13] = experiment: Induction of cell cycle arrest in human MDA-MB-231 cells assessed as reduction in G1 phase at IC25 concentration incubated for 6 days by PI staining based flow cytometric analysis; assay type: functional; conditions: time 6.0 day
SK-BR-3 [14] = experiment: Induction of cell cycle arrest in human SK-BR-3 cells assessed as accumulation of cells at G2/M phase at IC25 concentration incubated for 6 days by PI staining based flow cytometric analysis; assay type: functional; conditions: time 6.0 day
SK-BR-3 [15] = experiment: Induction of DNA damage in human SK-BR-3 cells assessed as increase in gamma-H2AX level at IC50 concentration incubated for 6 days by flow cytometric analysis; assay type: functional, cell-based; conditions: time 6.0 day
Quadruplex DNA [16] = experiment: Binding affinity to c-Myc G4 quadruplex DNA (TGAGGGTGGGTAGGGTGGGTAA) (unknown origin) assessed as Gibbs free energy by ITC analysis; assay type: nucleic-acid assay
Quadruplex DNA [17] = experiment: Binding affinity to HER2 G4 quadruplex DNA (GGAGAAGGAGGAGGTGGAGGAGGAGGG) (unknown origin) assessed as Gibbs free energy by ITC analysis; assay type: nucleic-acid assay
MDA-MB-231 [18] = experiment: Induction of cell cycle arrest in human MDA-MB-231 cells assessed as reduction in G1 phase at IC50 concentration incubated for 6 days by PI staining based flow cytometric analysis; assay type: functional; conditions: time 6.0 day
Quadruplex RNA [19] = conditions: time 10.0 min
MCF7 [20] = experiment: Cytotoxicity against human MCF7 cells assessed as reduction in cell viability incubated for 6 days by SRB assay; assay type: functional, cell-based; conditions: Homo sapiens, MCF7, 144 h
MDA-MB-231 [21] = experiment: Induction of DNA damage in human MDA-MB-231 cells assessed as increase in gamma-H2AX level at IC50 concentration incubated for 6 days by flow cytometric analysis; assay type: functional, cell-based; conditions: time 6.0 day
MDA-MB-231 [22] = experiment: Induction of DNA damage in human MDA-MB-231 cells assessed as increase in gamma-H2AX level at IC25 concentration incubated for 6 days by flow cytometric analysis; assay type: functional, cell-based; conditions: time 6.0 day
Quadruplex DNA [23] = experiment: Stabilization of G4 quadruplex DNA (unknown origin) in human MCF7 cells at IC50 concentration incubated for 6 days by flow cytometric analysis; assay type: cell-based; conditions: time 6.0 day
SK-BR-3 [24] = experiment: Induction of DNA damage in human SK-BR-3 cells assessed as increase in gamma-H2AX level at IC25 concentration incubated for 6 days by flow cytometric analysis; assay type: functional, cell-based; conditions: time 6.0 day
SK-BR-3 [25] = experiment: Cytotoxicity against human SK-BR-3 cells assessed as reduction in cell viability incubated for 6 days by SRB assay; assay type: functional, cell-based; conditions: Homo sapiens, SK-BR-3, 144 h
Quadruplex DNA [26] = conditions: time 10.0 min; remark: listed apart in the source
Quadruplex DNA [27] = experiment: Stabilization of G4 quadruplex DNA (unknown origin) in human MCF7 cells at IC25 concentration incubated for 6 days by flow cytometric analysis; assay type: cell-based; conditions: time 6.0 day
Quadruplex RNA [28] = conditions: time 10.0 min; remark: listed apart in the source
Quadruplex DNA [29] = experiment: Binding affinity to c-Myc G4 quadruplex DNA (TGAGGGTGGGTAGGGTGGGTAA) (unknown origin) assessed as equilibrium binding constant (Ka) by ITC analysis; assay type: nucleic-acid assay
Quadruplex DNA [30] = experiment: Binding affinity to HER2 G4 quadruplex DNA (GGAGAAGGAGGAGGTGGAGGAGGAGGG) (unknown origin) assessed as change in entropy by ITC analysis; assay type: nucleic-acid assay
MCF7 [31] = experiment: Downregulation of c-MYC protein expression in human MCF7 cells at IC50 concentration incubated for 6 days by Western blotting analysis; assay type: functional, cell-based; conditions: time 6.0 day
Quadruplex DNA [32] = conditions: time 10.0 min; remark: listed apart in the source
MCF7 [33] = experiment: Induction of DNA damage in human MCF7 cells assessed as increase in gamma-H2AX level at IC25 concentration incubated for 6 days by flow cytometric analysis; assay type: functional, cell-based; conditions: time 6.0 day
MCF7 [34] = experiment: Induction of cell cycle arrest in human MCF7 cells assessed as reduction in G1 phase at IC25 concentration incubated for 6 days by PI staining based flow cytometric analysis; assay type: functional; conditions: time 6.0 day
SK-BR-3 [35] = experiment: Cytotoxicity against human SK-BR-3 cells assessed as reduction in cell viability at 0.625 to 20 uM incubated for 6 days by SRB assay; assay type: functional, cell-based; conditions: dose 0.625-20 µM, time 6.0 day
MCF7 [36] = experiment: Cytotoxicity against human MCF7 cells assessed as reduction in cell viability at 0.625 to 20 uM incubated for 6 days by SRB assay; assay type: functional, cell-based; conditions: dose 0.625-20 µM, time 6.0 day

CCc1c2c(nc3ccc(OC(=O)N4CCC(N5CCCCC5)CC4)cc13)-c1cc3c(c(=O)n1C2)COC(=O)[C@]3(O)CC [IRINOTECAN]
Activity (MDA-MB-231 [1]): Dose-dependent-effect
IC50 (MDA-MB-231 [2]): 1600 nM
IC25 (MDA-MB-231 [2]; time 6 day, read-out: IC25): 1100 nM
Activity (SK-BR-3 [3]): Active
deltaTm1/2 (Quadruplex DNA [4]): 19 °C
deltaH (Quadruplex DNA [5]): -1.86 kcal/mol
Activity (MCF7 [6]): Active; Slightly Lower Dna Damage Observed
deltaH (Quadruplex DNA [7]): -5.4 kcal/mol
Activity (Quadruplex DNA [8]): Active
Activity (MCF7 [9]): Active
Ka (Quadruplex DNA [10]): 2.2 10^5/M
TdeltaS (Quadruplex DNA [11]): 5.21 kcal/mol
deltaTm1/2 (Quadruplex DNA [12]): 19.6 °C
Activity (MDA-MB-231 [13]): Active
Activity (SK-BR-3 [14]): Active
Activity (SK-BR-3 [15]): Active; Slightly Lower Dna Damage Observed
deltaG (Quadruplex DNA [16]): -7.07 kcal/mol
deltaG (Quadruplex DNA [17]): -7.29 kcal/mol
Activity (MDA-MB-231 [18]): Active
deltaTm1/2 (Quadruplex RNA [19]): > 20 °C
IC50 (MCF7 [20]): 480 nM
IC25 (MCF7 [20]; time 6 day, read-out: IC25): 280 nM
Activity (MDA-MB-231 [21]): Active
Activity (MDA-MB-231 [22]): Active
Activity (Quadruplex DNA [23]): Active
Activity (SK-BR-3 [24]): Active; Slightly Lower Dna Damage Observed
IC50 (SK-BR-3 [25]): 500 nM
IC25 (SK-BR-3 [25]; time 6 day, read-out: IC25): 360 nM
deltaTm1/2 (Quadruplex DNA [26]): 8.7 °C
Activity (Quadruplex DNA [27]): Active
deltaTm1/2 (Quadruplex RNA [28]): 6.6 °C
Ka (Quadruplex DNA [29]): 1.5 10^5/M
TdeltaS (Quadruplex DNA [30]): 1.89 kcal/mol
Activity (MCF7 [31]): Active
deltaTm1/2 (Quadruplex DNA [32]): 14.8 °C
Activity (MCF7 [33]): Active; Slightly Lower Dna Damage Observed
Activity (MCF7 [34]): Active

Cc1c(-c2ccccc2)oc2c(C(=O)OCCN3CCCCC3)cccc2c1=O
deltaTm1/2 (Quadruplex DNA [4]): 4.5 °C
deltaTm1/2 (Quadruplex DNA [12]): 9.8 °C
deltaTm1/2 (Quadruplex RNA [19]): 8.5 °C
Activity (SK-BR-3 [35]): Active
deltaTm1/2 (Quadruplex DNA [26]): -2.6 °C
deltaTm1/2 (Quadruplex RNA [28]): 5.6 °C
deltaTm1/2 (Quadruplex DNA [32]): 4.9 °C
Activity (MCF7 [36]): Active
